Laboratory results published in US5798336A, “Antimicrobial peptides” (priority 1995, dated 1998).
Like-named read-outs stand apart in the source and are kept apart here. Where a SMILES comes first, the peptide text is derived from it.

How the values were obtained:
[1] = system: N. gonorrhoeae strain WS1
S. aureus strain 8325-4 = details: strain 8325-4, 500

Row | SMILES | Log Kill (500 μg/ml) P. aeruginosa ATCC 27853 (P. aeruginosa ATCC 27853; Table 6, crude peptides 500 μg/ml, about 10^7 CFU/ml, 1/100 strength HBSS) [log] | Log Kill (500 μg/ml) N. gonorrhoeae strain WS1 ([1]; Table 6, crude peptides 500 μg/ml, 1/100 strength HBSS) [log] | Log Kill (500 μg/ml) S. aureus strain 8325-4 (S. aureus strain 8325-4) [log] | Log Kill (500 μg/ml) P. aeruginosa ATCC 27853 (P. aeruginosa ATCC 27853; ATCC 27853, 500) [log] | Log Kill (500 μg/ml) P. aeruginosa ATCC 278533 (P. aeruginosa ATCC 27853; ATCC 27853, 500) [log] | Log Kill (500 μg/ml) N. gonorrhoeae strain WS1 ([1]; strain WS1, 500) [log]
1 | CC[C@H](C)[C@H](NC(=O)[C@H](CCCNC(=N)N)NC(=O)[C@H](CC(C)C)NC(=O)[C@H](CS)NC(=O)[C@H](CCC(N)=O)NC(=O)[C@H](CCCNC(=N)N)NC(=O)[C@H](CC(=O)O)NC(=O)[C@H](CCCNC(=N)N)NC(=O)[C@H](CCC(N)=O)NC(=O)[C@@H](NC(=O)[C@H](CCCNC(=N)N)NC(=O)[C@H](CC(C)C)NC(=O)[C@H](CCC(N)=O)NC(=O)[C@@H](NC(=O)[C@H](CCC(=O)O)NC(=O)[C@H](CCCNC(=N)N)NC(=O)[C@H](CC(C)C)NC(=O)[C@@H](NC(=O)[C@@H](N)CC(=O)O)[C@@H](C)O)C(C)C)C(C)C)C(=O)N[C@@H](Cc1ccccc1)C(=O)O [CG 137-156] (H-DTLREVQLRVQRDRQCLRIF-OH) | 0.01 | 0.43 |  |  |  | 
2 | CSCC[C@H](NC(=O)[C@H](CO)NC(=O)[C@@H](NC(=O)[C@H](CCCNC(=N)N)NC(=O)CNC(=O)[C@H](Cc1c[nH]c2ccccc12)NC(=O)CNC(=O)[C@H](C)NC(=O)[C@@H](NC(=O)[C@@H](NC(=O)[C@H](CS)NC(=O)[C@H](CC(C)C)NC(=O)[C@@H](NC(=O)CNC(=O)[C@@H]1CCCN1C(=O)[C@@H](N)CCCNC(=N)N)[C@@H](C)O)[C@@H](C)O)C(C)C)C(C)C)C(=O)N[C@@H](CCCNC(=N)N)C(=O)N[C@@H](CCCNC(=N)N)C(=O)NCC(=O)N[C@H](C(=O)O)[C@@H](C)O [CG 117-136] (H-RPGTLCTVAGWGRVSMRRGT-OH) |  |  | 5.34 | 5.8 | 5.88 | 
3 | CSCC[C@H](NC(=O)[C@H](CO)NC(=O)[C@@H](NC(=O)[C@H](CCCNC(=N)N)NC(=O)CNC(=O)[C@@H](N)Cc1c[nH]c2ccccc12)C(C)C)C(=O)N[C@@H](CCCNC(=N)N)C(=O)N[C@@H](CCCNC(=N)N)C(=O)NCC(=O)N[C@H](C(=O)O)[C@@H](C)O [CG 127-136] (H-WGRVSMRRGT-OH) |  |  | 0 | 0.27 |  | 3.20
4 | CC(C)C[C@H](NC(=O)[C@@H](NC(=O)CNC(=O)[C@@H]1CCCN1C(=O)[C@@H](N)CCCNC(=N)N)[C@@H](C)O)C(=O)N[C@@H](CS)C(=O)N[C@H](C(=O)N[C@H](C(=O)N[C@@H](C)C(=O)NCC(=O)N[C@@H](Cc1c[nH]c2ccccc12)C(=O)NCC(=O)N[C@@H](CCCNC(=N)N)C(=O)O)C(C)C)[C@@H](C)O [CG 117-129] (H-RPGTLCTVAGWGR-OH) |  |  | 0 | 0.86 |  | 0.05
5 | CC[C@H](C)[C@H](NC(=O)[C@H](C)NC(=O)[C@H](CCCNC(=N)N)NC(=O)[C@H](CCCNC(=N)N)NC(=O)[C@H](C)NC(=O)[C@@H](NC(=O)[C@@H](NC(=O)[C@H](Cc1c[nH]cn1)NC(=O)[C@H](CCC(N)=O)NC(=O)[C@H](CCC(N)=O)NC(=O)[C@@H](NC(=O)[C@H](CC(N)=O)NC(=O)[C@H](CCC(=O)O)NC(=O)[C@H](CCCNC(=N)N)NC(=O)[C@@H](N)CCCNC(=N)N)[C@@H](C)O)[C@@H](C)CC)[C@@H](C)O)C(=O)N[C@@H](CCCNC(=N)N)C(=O)N[C@@H](Cc1c[nH]cn1)C(=O)N1CCC[C@H]1C(=O)N[C@@H](CCC(N)=O)C(=O)N[C@@H](Cc1ccc(O)cc1)C(=O)O [CG 61-80] (H-RRENTQQHITARRAIRHPQY-OH) |  |  | 0.58 |  | 5.15 | 0
6 | CC[C@H](C)[C@H](NC(=O)[C@H](CC(N)=O)NC(=O)[C@H](Cc1c[nH]cn1)NC(=O)[C@H](C)NC(=O)CNC(=O)[C@H](CC(C)C)NC(=O)[C@@H](NC(=O)[C@@H](NC(=O)[C@H](CC(N)=O)NC(=O)[C@@H](NC(=O)[C@H](CC(N)=O)NC(=O)[C@H](CO)NC(=O)CNC(=O)[C@H](Cc1c[nH]c2ccccc12)NC(=O)[C@H](CS)NC(=O)[C@H](Cc1c[nH]cn1)NC(=O)[C@H](C)NC(=O)[C@H](C)NC(=O)[C@@H](N)[C@@H](C)O)[C@@H](C)CC)C(C)C)[C@@H](C)O)C(=O)N[C@@H](CCC(N)=O)C(=O)O [CG 41-60] (H-TAAHCWGSNINVTLGAHNIQ-OH) |  |  |  | 0.5 |  | -0.09
7 | CC(C)C[C@H](NC(=O)[C@@H](NC(=O)[C@H](Cc1ccccc1)NC(=O)[C@H](CC(=O)O)NC(=O)[C@H](CCC(=O)O)NC(=O)[C@H](CCCNC(=N)N)NC(=O)[C@@H](NC(=O)[C@H](CC(C)C)NC(=O)[C@H](Cc1ccccc1)NC(=O)CNC(=O)CNC(=O)[C@H](CS)NC(=O)[C@H](CCCNC(=N)N)NC(=O)[C@H](CO)NC(=O)[C@H](CCC(N)=O)NC(=O)CNC(=O)[C@H](C)NC(=O)[C@@H]1CCCN1C(=O)[C@H](CO)NC(=O)[C@@H](N)CCC(N)=O)C(C)C)C(C)C)C(=O)O [CG 21-40] (H-QSPAGQSRCGGFLVREDFVL-OH) |  |  |  | -0.034 |  | 0.05
8 | CC[C@H](C)[C@H](NC(=O)[C@H](CCC(N)=O)NC(=O)[C@H](CCCNC(=N)N)NC(=O)[C@H](CCCNC(=N)N)NC(=O)[C@@H]1CCCN1C(=O)[C@H](CC(=O)O)NC(=O)[C@H](Cc1ccc(O)cc1)NC(=O)[C@H](CO)NC(=O)CN)C(=O)N[C@@H](CS)C(=O)N[C@H](C(=O)NCC(=O)N[C@@H](CC(=O)O)C(=O)N[C@@H](CCCNC(=N)N)C(=O)N[C@@H](CCCNC(=N)N)C(=O)N[C@@H](CCC(=O)O)C(=O)N[C@@H](CCCNC(=N)N)C(=O)N[C@@H](CCCCN)C(=O)N[C@@H](C)C(=O)N[C@@H](C)C(=O)O)C(C)C [CG 157-176] (H-GSYDPRRQICVGDRRERKAA-OH) |  |  |  | 1.02 |  | -0.18
9 | CC[C@H](C)[C@H](NC(=O)[C@H](CC(=O)O)NC(=O)[C@H](CC(N)=O)NC(=O)[C@H](CCC(N)=O)NC(=O)[C@@H](NC(=O)[C@@H](NC(=O)[C@H](CCCNC(=N)N)NC(=O)[C@H](CCC(N)=O)NC(=O)[C@H](CC(N)=O)NC(=O)[C@H](Cc1ccc(O)cc1)NC(=O)[C@H](CCC(N)=O)NC(=O)[C@@H]1CCCN1C(=O)[C@@H](N)Cc1c[nH]cn1)[C@@H](C)O)[C@@H](C)CC)C(=O)N[C@@H](CCSC)C(=O)N[C@@H](CC(C)C)C(=O)N[C@@H](CC(C)C)C(=O)N[C@@H](CCC(N)=O)C(=O)N[C@@H](CC(C)C)C(=O)N[C@@H](CO)C(=O)N[C@@H](CCCNC(=N)N)C(=O)O [CG 77-96] (H-HPQYNQRTIQNDIMLLQLSR-OH) |  |  |  | 0.06 |  | 0.24
10 | CC[C@H](C)[C@H](NC(=O)CNC(=O)[C@H](Cc1c[nH]cn1)NC(=O)[C@H](C)NC(=O)[C@@H](NC(=O)[C@H](CC(N)=O)NC(=O)[C@H](CC(N)=O)NC(=O)[C@H](CS)NC(=O)[C@H](CC(C)C)NC(=O)[C@H](CC(C)C)NC(=O)[C@@H]1CCCN1C(=O)CNC(=O)CNC(=O)[C@H](CO)NC(=O)[C@H](CC(=O)O)NC(=O)CNC(=O)[C@H](CCCCN)NC(=O)[C@@H](N)Cc1ccccc1)C(C)C)C(=O)N[C@H](C(=O)N[C@@H](CO)C(=O)N[C@@H](Cc1ccc(O)cc1)C(=O)O)C(C)C [CG 177-197] (H-FKGDSGGPLLCNNVAHGIVSY-OH) |  |  |  | -0.79 |  | 0.68
